Source: patent publication US20100254902A1, “STABILIZATION OF RADIOPHARMACEUTICALS” (priority 2008, published 2010)

Experiment: Radiochemical purity (RCP) of [^18F]FDG composition by TLC, stability testing
Protocol: Radiochemical purity of [^18F]FDG composition samples was determined at end of synthesis (EOS) and at Expiry i.e. after 10 hours storage at 22° C.±3° C. to determine stability of the composition.
To a series of vials was added an amount of stabilizer dissolved in Buffer.
At EOS (within 2 hours), a 100-fold dilution of the test solution was prepared by addition of a 10 μl sample to a 990 μl volume of water for injection. After mixing, a 2 μl sample was applied to a TLC strip.
At 10 hours after synthesis, a 10-fold dilution was made by addition of a 20 μl sample to a 180 μl volume of water for injection. After mixing, a 3 μl sample was applied to a TLC strip.
Within 1 to 3 hours after manufacture, radiochemical purity (RCP) was determined by TLC. The vials were stored at 22° C.±3° C. and at 10 hours after synthesis, RCP was again determined by TLC.

SMILES	stabilising effect on [^18F]FDG composition (conclusion) (Example 1, additives 2.5-20 mg/ml acetone or ethanol, 3-6 mg/ml gentisic acid)	RCP at EOS+10 h, difference GA versus ethanol (Example 5, vial 6 versus vial 5) [%]	stabiliser quality compared with ethanol (conclusion) (Example 5, vial 6 versus vial 5, approximately 2 mg/ml stabilizer)	effect of increasing amounts of gentisic acid on stabilisation of [^18F]FDG (Examples 2-4, batches <50 GBq at EOS, ranges 0.1-0.5, 0.5-1 and 1-2 mg/ml)
CC(C)=O [Acetone, reference compound]	slight stabilising effect	–	–	–
O=C(O)c1cc(O)ccc1O [gentisic acid, 2,5-dihydroxybenzoic acid]	–	1	better stabiliser than ethanol	the higher amount was found to be more effective
